This assay has as its target T1, PolD (Streptomyces asoensis, UniProt C1IC31).
T1 sequence (C1IC31 1-215): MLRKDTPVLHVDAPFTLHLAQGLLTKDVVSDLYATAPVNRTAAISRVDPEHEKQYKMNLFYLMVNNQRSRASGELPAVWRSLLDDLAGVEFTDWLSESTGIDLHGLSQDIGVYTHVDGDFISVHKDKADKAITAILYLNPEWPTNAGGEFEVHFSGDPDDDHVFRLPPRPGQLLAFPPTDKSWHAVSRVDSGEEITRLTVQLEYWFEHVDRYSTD
Put plainly: binding and oxidation of alpha-KG, succinate detection by HR-MS. The following applies: Fe(II), ascorbate 5 mM, O2, pH 7.6, 25 °C. It counts as biochemical.

Each structure is given as a SMILES string.

As to `O=C(O)CCC(=O)C(=O)O` [α-KG], the “binding and oxidation of alpha-KG, succinate detection by HR-MS” value was “non-heme mono-iron center capable of binding and oxidizing α-KG”.

The record behind these values is article PMC5069167 (Nature chemical biology, 2016).
